Measurements from publication PMC5669356, “Continuous degradation of maltose by enzyme entrapment technology using calcium alginate beads as a matrix” (Biochemistry and Biophysics Reports, 2015).

System: maltase
Assay: GOD-PAP glucose release assay, Lineweaver-Burk plot
Type: biochemical, Bacillus licheniformis
Conditions: free (soluble) enzyme, partially purified; maltose 2.5-50 mM; pH and temperature of the kinetics not stated

OC[C@H]1O[C@H](O[C@H]2[C@H](O)[C@@H](O)C(O)O[C@@H]2CO)[C@H](O)[C@@H](O)[C@@H]1O (stereo partly shown) [maltose]
Km: 1.71 mM ml^−1
